From patent US5403824A, “Methods for the treatment of osteoporosis” (The Procter & Gamble Company, priority 1993, dated 1995)

System: Rat osteoblast-like cells (ROS 17/2.8)
Assay: [3H]-thymidine incorporation, proliferation of osteoblast-like cells
Assay type: cell-based
Settings: ROS 17/2.8, 18 hrs incubation, 2 hrs pulse
Source text: Stimulation of osteoblast-like cell proliferation can be measured according to several art-recognized in vitro models. One such model is described in European Patent Publication No. 384,731, by Rodan et al, published Aug. 29, 1990, which is incorporated herein by reference. (Applicants have modified this method by reducing regent volumes to one-quarter those described and by utilizing Dulbecco's Modified eagle's Medium (DMEM).) In this model, proliferation (division) of, for example, rat osteoblast-like cells (rat osteosarcoma (ROS) cells, rat calvaria cells, etc.) is observed by measuring the amount of radiolabeled thymidine ([^3 H]thymidine) incorporated by these cells. ([^3 H]thymidine is "incorporated" by cellular DNA being synthesized as a result of cell proliferation.) The greater the level of [^3 H]thymidine measured, the greater the amount of proliferation of the osteoblast cells.
More specifically, a test sample (comprised of a test compound and osteoblast-like cells) and a control sample (comprised of only osteoblast-like cells) are pulsed with [^3 H]thymidine. The amount of [^3 H]thymidine incorporated by the cells is measured using a direct beta counter.
Rat osteoblast-like cells (ROS 17/2.8) are plated at 4×10^3 cells/well in a 96-well plate in Dulbecco's Modified eagle's Medium supplemented with 2% (v/v) Fetal Bovine Serum, and incubated for 6 hrs. Control (serum-free) medium and test medium (test sample and serum-free medium) are then added to the cells and this combination is incubated for 18 hrs. The cells are then pulsed with [^3 H]-thymidine (1 μCi/well) for 2 hrs. The medium is then removed, the cells are harvested onto glass fibre filters and the amount of [^3 H]-thymidine (counts per minute per well) incorporated into DNA is then determined using a direct beta counter. Values for control groups are then compared to values for treated groups.
(§1) The compound H-Tyr-D-Ala-Gly-Phe-D-Leu-OH ("DADLE") is screened to determine whether it stimulates proliferation of osteoblast-like cells. […] The medium is then removed, the cells are harvested onto glass fibre filters, and the amount of ^3 H-thymidine (counts per minute per well) incorporated into DNA is determined using a direct beta counter. […]
as §1, with “Tyr-D-Cys(S-t-butylthioether)-Gly-Phe-Leu-Thr(O-t-butylether) ("BUBUC")” for “H-Tyr-D-Ala-Gly-Phe-D-Leu-OH ("DADLE")”

O=C(O)CNC(=O)C(CS)Cc1ccccc1 (racemic) [DL-3-mercapto-2-benzyl-propanoylglycine]
[3H]-thymidine incorporation (proliferation) vs control: significantly stimulated proliferation of the osteoblast-like cells
